We go through five compounds from patent US6903107B1, “Serine protease inhibitor” (Akzo Nobel N.V., priority 1998, dated 2005).

pIC50: −log10 of the molar value.

The experiment has as its target T1, Human thrombin (Homo sapiens, UniProt P00734).
T1 construct: purchased Centraal Laboratorium voor Bloedtransfusie, Amsterdam, The Netherlands
The experiment in a line: Anti-thrombin assay (hydrolysis of chromogenic substrate S-2238). In kind it is biochemical. As to conditions: chromogenic substrate S-2238, TNP buffer, pH 7.4, 37° C.; read-out: Antithrombin activity: IC50. The protocol:
Thrombin (Factor IIa) is a factor in the coagulation cascade. The anti-thrombin activity of compounds of the present invention was assessed by measuring spectrophotometrically the rate of hydrolysis of the chromogenic substrate s-2238 exterted by thrombin. This assay for anti-thrombin activity in a buffer system was used to assess the IC50-value of a test compound.
Test medium: Tromethamine-NaCl-polyethylene glycol 6000 (TNP) buffer
Reference compound: 12581 (Kabi)
Vehicle: TNP buffer. Solubilisation can be assisted with dimethylsulphoxide, methanol, ethanol, acetonitrile or tert.-butyl alcohol which are without adverse effects in concentrations up to 2.5% in the final reaction mixture.
Technique Reagents* • 1. Tromethamine-NaCl (TN) buffer Composition of the buffer:
• The pH of the solution is adjusted to 7.4 at 37° C. with HCl (10 mmol.l^−1). • 2. TNP buffer Polyethylene glycol 6000 is dissolved in TN buffer to give a concentration of 3 g.l^−1. • 3. S-2238 solution One vial S-2238 (25 mg; Kabi Diagnostica, Sweden) is dissolved in 20 ml TN buffer to give a concentration of 1.25 mg.ml^−1 (2 mmol.l^−1). • 4. Thrombin solution Human thrombin (16 000 nKat.vial^−1; Centraal Laboratorium voor Bloedtransfusie, Amsterdam, The Netherlands) is dissolved in TNP buffer to give a stock solution of 835 nKat.ml^−1. Immediately before use this solution is diluted with TNP buffer to give a concentration of 3.34 nKat.ml^−1. • All ingredients used are of analytical grade • For aqueous solutions ultrapure water (Milli-Q quality) is used.
Preparation of test and reference compound solutions
The test and reference compounds are dissolved in Milli-Q water to give stock concentrations of 10^−2 mol.l^−1. Each concentration is stepwise diluted with the vehicle to give concentrations of 10^−3, 10^−4 and 10^−5 mol.l^−1. The dilutions, including the stock solution, are used in the assay (final concentrations in the reaction mixture: 3·10^−3; 10^−3; 3·10^−4; 10^−4; 3.10^−5; 10^−5; 3.10^−6 and 10^−6 mol.l^−1, respectively).
At room temperature 0.075 ml and 0.025 ml test compound or reference compound solutions or vehicle are alternately pipetted into the wells of a microtiter plate and these solutions are diluted with 0.115 ml and […] TNP buffer, respectively. An aliquot of 0.030 ml S-2238 solution is added to each well and the plate is pre-heated and pre-incubated with shaking in an incubator (Amersham) for 10 min. at 37° C. Following pre-incubation the hydrolysis of S-2238 is started by addition of 0.030 ml thrombin solution to each well. The plate is incubated (with shaking for 30 s) at 37° C. Starting after 1 min of incubation, the absorbance of each sample at 405 nm is measured every 2 min. for a period of 90 min. using a kinetic microtiter plate reader (Twinreader plus, Flow Laboratories). All data are collected in an IBM personal computer using LOTUS-MEASURE. For each compound concentration (expressed in mol.l^−1 reaction mixture) and for the blank the absorbance is plotted versus the reaction time in min.
Evaluation of responses: For each final concentration the maximum absorbance was calculated from the assay plot. The IC50-value (final concentration, expressed in μmol.l^−1, causing 50% inhibition of the maximum absorbance of the blank) was calculated using the logit transformation analysis according to Hafner et al. (Arzneim.-Forsch./Drug Res. 1977; 27(II): 1871-3).
Regarding `CC1(C)C2CCC1(CS(=O)(=O)NC(CC1CCCCC1)C(=O)N1CCCCC1CCOc1ccc3c(N)nccc3c1)C(=O)C2` [Example 1, (2S)-1-(N-(−)-camphorsulphonyl-D-cyclohexylalaninyl)-2-(2-(1-amino-isoquinolin-6-oxy)-eythyl)-piperidine], the pIC50 was 6.39.
Under `Nc1nccc2cc(OCCC3CCCCN3C(=O)C(CC3CCCCC3)NCC(=O)Nc3ccccc3)ccc12` [Example 10, 1-(N-anilinocarbonylmethyl-D-cyclohexylalaninyl)-2-(2-(1-amino-isoquinolin-6-oxy)-ethyl)-piperidine] stands 5.87; under `Nc1nccc2cc(OCCC3CCCCN3C(=O)C(CC3CCCCC3)NC3CCCCC3)ccc12` [Example 11, 1-(N-cyclohexyl-D-cyclohexylalanine)-2-(2-(1-amino-isoquinolin-6-oxy)-ethyl)-piperidine], 6.30; under `Nc1nccc2cc(OCCC3CCCCN3C(=O)C(CC3CCCCC3)NCC(=O)NC3CCCC3)ccc12` [Example 9, 1-(N-cyclopentylaminocarbonylmethyl-D-cyclohexylalaninyl)-2-(2-(1-amino-isoquinolin-6-oxy)-ethyl)-piperidine], 6.49.
The result for “1-(N-cyclooctyl-γ-tert-butyl-L-glutamyl)-2-(2-(1-amino-isoquinolin-6-oxy)-ethyl)-piperidine [Example 8]” reads 6.21.
